logP and chromatographic logP data for 59 molecules are collected here from US20210386069A1 (priority 2018, published 2021).

Structures are written as SMILES.

A short description of one data set: log P by HPLC on a reversed-phase column (C 18), EEC Directive 79/831 Annex V.A8. Format: physicochemical. The following applies: HPLC reversed-phase C 18, 40° C., 0.1% aqueous formic acid and acetonitrile, linear gradient 10% to 95% acetonitrile. The method, then: In table 1, the log P values were determined in accordance with EEC Directive 79/831 Annex V.A8 by HPLC (High Performance Liquid Chromatography) on a reversed-phase column (C 18), using the method described below:
temperature: 40° C.; mobile phases: 0.1% aqueous formic acid and acetonitrile; linear gradient from 10% acetonitrile to 95% acetonitrile;
If more than one Log P value is available within the same method, all the values are given and separated by “;”.
Calibration was carried out using unbranched alkan-2-ones (comprising 3 to 16 carbon atoms) with known log P values (determination of the log P values by the retention times using linear interpolation between two successive alkanones). lambda-max-values were determined using UV-spectra from 200 nm to 400 nm and the peak values of the chromatographic signals.
In the case of `CCc1ccncc1-c1c(F)cccc1Nc1cc2ccc(F)c(F)c2nc1C` [I.068], the logP (usually the decadic logarithm of the partition coefficient of the neutral form, usually between octanol and water) worked out at 2.41. The same measure, in the same setting: the value for `CCc1ncccc1-c1c(F)cccc1Nc1cc2ccc(F)c(F)c2nc1C` [I.069] was 2.41. Regarding `Cc1cncc(C)c1-c1c(F)cccc1Nc1cc2ccc(F)c(F)c2nc1C` [I.070], the logP stood at 2.28. Same read-out and setting: next, `CSc1ccc(-c2ccccc2Nc2cc3ccc(F)c(F)c3nc2C)cn1` [I.071]: 3.81; `CSc1ncccc1-c1ccccc1Nc1cc2ccc(F)c(F)c2nc1C` [I.072]: 4.08; `COc1ccc(-c2c(F)cccc2Cc2cc3ccc(F)c(F)c3nc2C)cn1` [I.073]: 3.99. The same measure, in the same setting: the value for `COc1cccc(-c2c(F)cccc2Cc2cc3ccc(F)c(F)c3nc2C)n1` [I.074] was 3.79; that for `COc1ncccc1-c1c(F)cccc1Cc1cc2ccc(F)c(F)c2nc1C` [I.075] was 3.79; that for `COc1ncccc1-c1c(F)cccc1Nc1cc2ccc(F)c(F)c2nc1C` [I.076] was 3.70. `COc1ccc(-c2c(F)cccc2Nc2cc3ccc(F)c(F)c3nc2C)cn1` [I.077]: the log partition coefficient (logP) is 3.71.

As to `COc1ncc(-c2c(F)cccc2Cc2cc3ccc(F)c(F)c3nc2C)cn1` [I.078], the logP is on record as 3.25. The molecule `COc1c(-c2ccccc2Nc2cc3ccc(F)c(F)c3nc2C)ccnc1F` [I.079] came in with a logP of 3.72. The same measure, in the same setting: the value for `COc1cccc(-c2c(F)cccc2Nc2cc3ccc(F)c(F)c3nc2C)n1` [I.080] was 4.55; that for `COc1cnccc1-c1c(F)cccc1Nc1cc2ccc(F)c(F)c2nc1C` [I.081] was 2.44; that for `COc1ccncc1-c1c(F)cccc1Nc1cc2ccc(F)c(F)c2nc1C` [I.082] was 1.84. On to `COc1cc(-c2c(F)cccc2Nc2cc3ccc(F)c(F)c3nc2C)ccn1` [I.083], for which the logP was determined as 3.71.

Molecule `Cc1cnc(Cl)c(-c2ccccc2Nc2cc3ccc(F)c(F)c3nc2C)c1` [I.084] yielded a logP of 3.69. Molecule `Cc1nc2c(F)c(F)ccc2cc1Nc1ccccc1-c1ccc(Cl)nc1C` [I.085] returned a logP of 3.94. As to `Cc1cc(Cl)ncc1-c1ccccc1Nc1cc2ccc(F)c(F)c2nc1C` [I.086], the logP is listed as 3.98.

On to `Cc1cc(-c2ccccc2Nc2cc3ccc(F)c(F)c3nc2C)cnc1Cl` [I.087], for which the lipophilicity (logP) is 3.91.

In turn, `COc1ncc(-c2c(F)cccc2Nc2cc3ccc(F)c(F)c3nc2C)cn1` [I.088] registered a logP of 3.08.

On to `Cc1cc(-c2c(F)cccc2Nc2cc3ccc(F)c(F)c3nc2C)cnc1F` [I.089], for which the logP was found to be 3.75.

In turn, `Cc1nc2c(F)c(F)ccc2cc1Nc1ccccc1-c1cncc(F)c1Cl` [I.090] showed a lipophilicity (logP) of 3.62. The same measure, in the same setting: the value for `Cc1nc2c(F)c(F)ccc2cc1Nc1cccc(F)c1-c1ccnc(Cl)c1` [I.091] was 3.69; that for `Cc1nc2c(F)c(F)ccc2cc1Nc1cccc(F)c1-c1ccc(Cl)nc1` [I.092] was 3.72; that for `Cc1nc2c(F)c(F)ccc2cc1Nc1cccc(F)c1-c1ccncc1Cl` [I.093] was 3.46. The same measure, in the same setting: the value for `Cc1nc2c(F)c(F)ccc2cc1Nc1cccc(F)c1-c1cccnc1Cl` [I.094] was 3.50. Still for that read-out and setting: the value for `Cc1nc2c(F)c(F)ccc2cc1Nc1ccccc1-c1cc(Cl)cnc1F` [I.095] was 4.01; that for `Cc1nc2c(F)c(F)ccc2cc1Nc1ccccc1-c1ccnc(F)c1Cl` [I.096] was 3.91. Molecule `Cc1nc2c(F)c(F)ccc2cc1Nc1ccccc1-c1cc(F)cnc1Cl` [I.097] gave a logP of 3.81. Still for that read-out and setting: the value for `Cc1nc2c(F)c(F)ccc2cc1Nc1ccccc1-c1cc(Cl)ncc1F` [I.098] was 3.91. On the same count and under the same terms, the value for `Cc1nc2c(F)c(F)ccc2cc1Nc1cccc(F)c1-c1cncc(Cl)c1` [I.099] was 3.60; that for `Cc1nc2c(F)c(F)ccc2cc1Nc1cccc(F)c1-c1cc(F)nc(F)c1` [I.100] was 3.98.

In turn, `Cc1nc2c(F)c(F)ccc2cc1Nc1cccc(F)c1-c1ccnc(F)c1F` [I.101] came in with a lipophilicity (logP) of 3.81. In the case of `Cc1nc2c(F)c(F)ccc2cc1Nc1cccc(F)c1-c1ccc(F)nc1F` [I.103], the lipophilicity (logP) worked out at 3.84. `Cc1nc2c(F)c(F)ccc2cc1Nc1cccc(F)c1-c1cccnc1C1CC1` [I.105]: the logP was 3.25. Still for that read-out and setting: next, `Cc1nc2c(F)c(F)ccc2cc1Nc1cccc(F)c1-c1ccncc1C1CC1` [I.106]: 2.49. `Cc1nc2c(F)c(F)ccc2cc1Nc1ccccc1-c1ccc(OC(C)C)nc1` [I.107]: the log partition coefficient (logP) is 4.43. The same measure, in the same setting: next, `COc1ccc(-c2ccccc2Nc2cc3ccc(F)c(F)c3nc2C)c(OC)n1` [I.108]: 4.62; `CCCc1ncccc1-c1c(F)cccc1Nc1cc2ccc(F)c(F)c2nc1C` [I.109]: 2.62. Same read-out and setting: next, `CCCc1cnccc1-c1c(F)cccc1Nc1cc2ccc(F)c(F)c2nc1C` [I.110]: 2.89; `CCCc1ccncc1-c1c(F)cccc1Nc1cc2ccc(F)c(F)c2nc1C` [I.111]: 2.75. On the same count and under the same terms, the value for `CCOc1ccc(-c2c(F)cccc2Nc2cc3ccc(F)c(F)c3nc2C)cn1` [I.112] was 4.09. `CCOc1ncccc1-c1c(F)cccc1Nc1cc2ccc(F)c(F)c2nc1C` [I.113] yielded a logP of 4.13. On the same count and under the same terms, the value for `CSc1ccc(-c2c(F)cccc2Nc2cc3ccc(F)c(F)c3nc2C)cn1` [I.114] was 3.91; that for `CSc1ncccc1-c1c(F)cccc1Nc1cc2ccc(F)c(F)c2nc1C` [I.115] was 3.98; that for `COc1nccc(-c2ccccc2Nc2cc3ccc(F)c(F)c3nc2C)c1Cl` [I.116] was 4.09. Same read-out and setting: the value for `COc1c(-c2c(F)cccc2Nc2cc3ccc(F)c(F)c3nc2C)ccnc1F` [I.117] was 3.75. `Cc1cnc(Cl)c(-c2c(F)cccc2Nc2cc3ccc(F)c(F)c3nc2C)c1` [I.118] came in with a logP of 3.75. Take `Cc1cc(-c2c(F)cccc2Nc2cc3ccc(F)c(F)c3nc2C)cnc1Cl` [I.119]: the logP worked out at 3.98.

In turn, `Cc1nc2c(F)c(F)ccc2cc1Nc1cccc(F)c1-c1ccc(Cl)nc1C` [I.120] registered a logP of 4.01. `Cc1cc(Cl)ncc1-c1c(F)cccc1Nc1cc2ccc(F)c(F)c2nc1C` [I.121] showed a logP of 4.01. `Cc1nc2c(F)c(F)ccc2cc1Nc1ccccc1-c1cncc(C(F)(F)F)c1` [I.122] registered a logP of 3.65. As to `Cc1nc2c(F)c(F)ccc2cc1Nc1ccccc1-c1ccc(C(F)(F)F)nc1` [I.123], the lipophilicity (logP) is 3.91. `Cc1nc2c(F)c(F)ccc2cc1Nc1ccccc1-c1cc(Cl)cnc1Cl` [I.124] registered a logP of 4.13.

As to `Cc1nc2c(F)c(F)ccc2cc1Nc1cccc(F)c1-c1cc(Cl)ncc1F` [I.126], the logP worked out at 3.98. Take `Cc1nc2c(F)c(F)ccc2cc1Nc1cccc(F)c1-c1cc(F)cnc1Cl` [I.127]: the logP was 3.87. For `Cc1nc2c(F)c(F)ccc2cc1Nc1cccc(F)c1-c1cc(Cl)cnc1F` [I.128], the log partition coefficient (logP) is on record as 4.05.

Still in this data set, the particulars now being: reversed-phase HPLC column (C 18); preparation examples; log P as defined in table 1 (HPLC, 0.1% aqueous formic acid/acetonitrile).
As for `Cc1nc2c(F)c(F)ccc2cc1Nc1cccc(F)c1-c1cnccc1C1CC1` [I.104, N-[2-(4-cyclopropylpyridin-3-yl)-3-fluorophenyl]-7,8-difluoro-2-methylquinolin-3-amine], the chromatographic logP (in general, a lipophilicity value derived from retention on a column) was determined as 2.12.
